In ChEMBL document CHEMBL1201862, “PubChem BioAssay data set” (2004):
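48-hour exposure; five concentrations; linearly interpolated endpoints. GI50 is the concentration that inhibits growth by half.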 Calls of active or inactive are those of the source. Rule as the data show it: active = GI50 up to about 1.1 µM and inactive = higher.

Tests used:
Experiment in all cases: NCI tumour cell line growth inhibition, 48 h
KM12 = system: KM12
M14 = system: M14
SK-MEL-2 = system: SK-MEL-2
SW-620 = system: SW-620
OVCAR-8 = system: OVCAR-8
HCT-15 = system: HCT-15
OVCAR-5 = system: OVCAR-5
SK-MEL-5 = system: SK-MEL-5
ACHN = system: ACHN
SK-MEL-28 = system: SK-MEL-28
EKVX = system: EKVX
SF-539 = system: SF-539
OVCAR-3 = system: OVCAR-3
A549 = system: A549
U-251 = system: U-251
TK-10 = system: TK-10
SNB-19 = system: SNB-19
SF-268 = system: SF-268

Compound	GI50 (KM12)	GI50 (M14)	GI50 (SK-MEL-2)	GI50 (SW-620)	GI50 (OVCAR-8)	GI50 (HCT-15) [µM]	GI50 (OVCAR-5)	GI50 (SK-MEL-5)	GI50 (ACHN)	GI50 (SK-MEL-28)	GI50 (EKVX)	GI50 (SF-539)	GI50 (OVCAR-3)	GI50 (A549)	GI50 (U-251)	GI50 (TK-10)	GI50 (SNB-19)	GI50 (SF-268)
C[C@]12CC[C@H](O)CC1=CC[C@@H]1C2CC[C@]2(C)Nc3c(cnn3-c3ccccc3)CC12 (some centres not stated)	2.05 µM (inactive)	6.34 µM (inactive)	9.73 µM (inactive)	2.6 µM (inactive)	6.87 µM (inactive)	2.23	3.96 µM (inactive)	3.24 µM (inactive)	3.26 µM (inactive)	2.86 µM (inactive)	6.07 µM (inactive)	0.9 µM (active)	5.9 µM (inactive)	3.43 µM (inactive)	2.36 µM (inactive)	9.48 µM (inactive)		
N#Cc1c2c(c(N=P(c3ccccc3)(c3ccccc3)c3ccccc3)n3c1nc1ccccc13)CCCC2	17.4 µM (inactive)	30.8 µM (inactive)	16.6 µM (inactive)	20.8 µM (inactive)	13 µM (inactive)	20.7		10.8 µM (inactive)	15.7 µM (inactive)	43.7 µM (inactive)	20 µM (inactive)	45.1 µM (inactive)	15.3 µM (inactive)	21.3 µM (inactive)	14.4 µM (inactive)		11.9 µM (inactive)	> 100 µM (inactive)
Cc1ccccc1/N=N/c1ccc(/N=N/c2c(O)ccc3ccccc23)c(C)c1 [SCARLET RED]	> 100 µM (inactive)	> 100 µM (inactive)	> 100 µM (inactive)	> 100 µM (inactive)	> 100 µM (inactive)	> 100	> 100 µM (inactive)	> 100 µM (inactive)	> 100 µM (inactive)	> 100 µM (inactive)	> 100 µM (inactive)		> 100 µM (inactive)	> 100 µM (inactive)	> 100 µM (inactive)	> 100 µM (inactive)	81.7 µM (inactive)	70.3 µM (inactive)
COC(=O)N/N=C(\Cc1ccccc1)CN(C)C	> 100 µM (inactive)	> 100 µM (inactive)	> 100 µM (inactive)	> 100 µM (inactive)	> 100 µM (inactive)		> 100 µM (inactive)	> 100 µM (inactive)	> 100 µM (inactive)	> 100 µM (inactive)	> 100 µM (inactive)	> 100 µM (inactive)	> 100 µM (inactive)	> 100 µM (inactive)	> 100 µM (inactive)	> 100 µM (inactive)		> 100 µM (inactive)
CN1C2CCC1CN(CCOC(c1ccc(F)cc1)c1ccc(F)cc1)C2	21.8 µM (inactive)	20.1 µM (inactive)	23.8 µM (inactive)	23.6 µM (inactive)	32.4 µM (inactive)	32.9	56.6 µM (inactive)	14.4 µM (inactive)	40.6 µM (inactive)	15.5 µM (inactive)	23.8 µM (inactive)	16.6 µM (inactive)	47.1 µM (inactive)	65 µM (inactive)	26.1 µM (inactive)	> 100 µM (inactive)	> 100 µM (inactive)	46.7 µM (inactive)
On1c(-c2ccccc2)c(-c2c(-c3ccccc3)n(O)c3ccccc23)c2ccccc21	30.8 µM (inactive)		25.8 µM (inactive)		26.1 µM (inactive)	41		21.9 µM (inactive)	29.9 µM (inactive)	61.9 µM (inactive)		24.8 µM (inactive)	38 µM (inactive)	32.4 µM (inactive)	35.5 µM (inactive)	38 µM (inactive)	67.5 µM (inactive)	55 µM (inactive)
